In patent publication US8138184B2, “Isoxazole derivatives and pharmaceutical compositions comprising the same” (Kaohsiung Medical University, priority 2008, dated 2012):

Assays:
[1] = Cell viability by MTT assay in hADSCs; format: cell-based, human; conditions: human, human adipose tissue derived stem cells (hADSCs), % of control
Protocol: (§1) Human adipose tissue derived stem cells (hADSCs), which is derived from adipose tissue, were selected an maintained in a keratinocyte SFM medium (Gibco BRL, Gaithersburg, Md.) supplemented with 5% FBS, 100 U/ml of penicillin and streptomycin.
(§2) New synthetic compounds were dissolved in DMSO to a final concentration of 10 mM and stored at −20° C. The concentration used was 10 μM and freshly diluted to the medium with a final concentration of DMSO at 0.1%. Control cultures were treated with the same amount of DMSO as used in the corresponding experiments.
The MTT assay is a calorimetric assay based on the ability of the viable cells to reduce a soluble yellow tetrazolium salt to blue formazan crystals (Carmichael, J. et. el. Cancer Research 1987, 47, 936). After compound treatments, 350 μL of MTT solution ([…] in PBS) were added to each well and incubated for 4 hrs. DMSO was then added for another 0.5 hrs to thoroughly dissolve the dark blue crystals. The absorbance at 570 nm was measured with an ELISA reader. Inhibition of mitochondrial metabolism was shown as relative activity (% of control).

[2] = system: Human adipose tissue derived stem cells (hADSCs); experiment: Cytotoxicity assay by lactate dehydrogenase (LDH) leakage in hADSCs; format: cell-based; conditions: 10 μM, % of total cell toxicity
Protocol: as §1, §2
Lactate dehydrogenase (LDH) leakage from cells was measured to quantify the cytotoxicity by using a cytotoxicity detection kit (Roche, Germany) (Crowston, J. G. et al Invest. Ophthalmol. Vis. Sci. 1998, 39, 449). Cells were previously seeded into 48-well plates (4×10^4 cells/well). After a drug treatment, the supernatants and cell layers of the cultures were collected for assay. According to the manufacturer's guidelines for the detection kit, cell layers were lysed with 1% TritonX-100, and cell lysates and supernatants were assayed in a 96-well plate, respectively. Briefly, 100 μL of catalyst solution was added in each assay well for 20 min. Absorbance was measured with an ELISA reader with a 490 nm filter. LDH leakage was shown as relative activity (% of total cell toxicity).

[3] = system: Human adipose tissue derived stem cells (hADSCs); experiment: Osteogenic differentiation and quantification of mineralization (Alizarin red S) in hADSCs; format: cell-based; conditions: 10 μM
Protocol: as §1, §2
Osteogenic differentiation was induced by culturing cells in an osteo-induction medium (OIM, 10% FBS, 0.1 μM dexamethasone, 10 mM β-glycerophosphate, and L-Ascorbic 2 phosphate 100 μM in low glucose DMEM) for 7-14 days. The extracellular matrix calcification was estimated by using an Alizarin red S stain (Carl, A. et al Anal. Biochem. 2004, 329, 77). The Alizarin red S-stained mineral was quantified by the osteogenesis quantification kit (CHEMICON®).

[4] = system: MCF-7 cells (human breast adenocarcinoma); experiment: Cytotoxicity assay (MTS reduction), MCF-7; format: cell-based; conditions: for activity at 4 µg/mL / activity at 20 µg/mL: Homo sapiens, MCF7, 72 h, 3 days, % of DMSO control, read-out: Growth percentage MCF7 (Breast); for activity at 20 µg/mL: 20 μg/mL
Protocol: (§3) MCF-7 cells (human breast adenocarcinoma), NCI-H460 cells (non-small-cell lung cancer) and SF-268cells (glioblastoma cells) were cultured in a Dulbecco's modified Eagle's medium supplemented with a 10% fetal calf serum and a nonessential amino acid (Life Technologies, Inc.) and maintained at 37° C. in a humidified incubator with 5% CO2.
(§4) Human cancer cells were seeded in 96-well microtiter plates at a density of 6500, 2500 and 7500 cells/well in 100 μl of culture medium for MCF-7, NCI-H460, and SF-268, respectively. […] Cells were treated with test compounds for 3 days. Cell viability was determined by the 5-[3-(carboxymethoxy)-phenyl]-2-(4,5-dimethylthiazolyl)-3-(4-sulfophenyl)tetrazolium salt (MTS) reduction assay. Actinomycin D (10 μM, final concentration) and DMSO (0.1%, final concentration) were used as positive and vehicle controls, respectively. Results were expressed as a % of the DMSO control.

[5] = system: NCI-H460 cells (non-small-cell lung cancer); experiment: Cytotoxicity assay (MTS reduction), NCI-H460; format: cell-based, human; conditions: for activity at 4 µg/mL / activity at 20 µg/mL: Homo sapiens, NCI-H460, 72 h, 3 days, % of DMSO control, read-out: Growth percentage NCI-H460 (Lung); for activity at 20 µg/mL: 20 μg/mL
Protocol: as §3, §4

[6] = system: SF-268 cells (glioblastoma cells); experiment: Cytotoxicity assay (MTS reduction), SF-268; format: cell-based, human; conditions: for activity at 4 µg/mL / activity at 20 µg/mL: Homo sapiens, SF-268, 72 h, 3 days, % of DMSO control, read-out: Growth percentage SF-268 (CNS); for activity at 20 µg/mL: 20 μg/mL
Protocol: as §3, §4

SMILES | viability at 3 days, 10 µM [1] [%] | Cell cytotoxicity (3 days, LDH) [2] [%] | osteoblast activity (mineralization in hADSCs), in words [3] | activity at 4 µg/mL ([4]; 4 μg/mL) [%] | activity at 20 µg/mL [4] [%] | activity at 4 µg/mL ([5]; 4 μg/mL) [%] | activity at 20 µg/mL [5] [%] | activity at 4 µg/mL ([6]; 4 μg/mL) [%] | activity at 20 µg/mL [6] [%] | inhibition of growth of MCF7 (in words) ([4]; 4 μg/mL) | inhibition of growth of NCI-H460 (in words) ([5]; 4 μg/mL) | inhibition of growth of SF-268 (in words) ([6]; 4 μg/mL)
COc1ccc(-c2cnoc2-c2ccc(OC(C)C)cc2OCCCCN2CCCC2)cc1 [5a, 5-{4-Isopropoxy-2-[4-(pyrrolidin-1-yl)butoxy]phenyl}-4-(4-methoxyphenyl)isoxazole] | 71 | 0 | more active than ipriflavone | 83 | 1 | 81 | 1 | 121 | 2 | – | – | –
COc1ccc(-c2cnoc2-c2ccc(OC(C)C)cc2OCCCCCCN2CCCC2)cc1 [5e, 5-{4-Isopropoxy-2-[6-(pyrrolidin-1-yl)hexyloxy]phenyl}-4-(4-methoxyphenyl)isoxazole] | 64 | 0 | more active than ipriflavone | 55 | 0 | 22 | 1 | 38 | 1 | – | – | –
COc1ccc(-c2cnoc2-c2ccc(OCCCCCCN3CCNCC3)cc2O)cc1 [8a] | 64 | 0 | – | 7 | -1 | 29 | 0 | 68 | -2 | – | – | –
COc1ccc(-c2cnoc2-c2ccc(OC(C)C)cc2OCCCCCCCN2CCCC2)cc1 [5i, 5-{4-Isopropoxy-2-[7-(pyrrolidin-1-yl)heptyloxy]phenyl}-4-(4-methoxyphenyl)isoxazole] | 63 | 0 | – | 32 | 2 | 11 | 1 | 30 | 2 | – | – | –
COc1ccc(-c2cnoc2-c2ccc(OC(C)C)cc2OCCCCN2CCOCC2)cc1 [5b, 4-{4-{5-Isopropoxy-2-[4-(4-methoxyphenyl)isoxazol-5-yl]phenoxy}butyl}morpholine] | 58 | 13 | – | 63 | 4 | 52 | 1 | 58 | 3 | – | – | –
COc1ccc(-c2cnoc2-c2ccc(OC(C)C)cc2OCCCCCCCN2CCNCC2)cc1 [5k] | 68 | 0 | – | 1 | 1 | 0 | 1 | 3 | 1 | – | – | –
COc1ccc(-c2cnoc2-c2ccc(OC(C)C)cc2OCCCCCCN2CCCCC2)cc1 [5h, 5-{4-isopropoxy-2-[6-(piperidin-1-yl)hexyloxy]phenyl}-4-(4-methoxyphenyl)isoxazole] | 57 | 0 | – | 13 | -3 | 2 | -1 | 4 | -1 | significantly inhibit the growth | significantly inhibit the growth | significantly inhibit the growth
COc1ccc(-c2cnoc2-c2ccc(OC(C)C)cc2O)cc1 [compound 3, 5-Isopropoxy-2-[4-(4-methoxyphenyl)isoxazol-5-yl]phenol] | 6 | 68 | – | – | – | – | – | – | – | – | – | –
